From the CheMixHub viscosity set
± gives the uncertainty stated by the source.

Assay: xn = mol fraction of the nth substance listed

CN(C)c1ccccc1 + Cc1ccccc1
viscosity [mPa·s], 101 kPa
Conditions	x1 = 0.1011	x1 = 0.1961	x1 = 0.3125	x1 = 0.4011	x1 = 0.493	x1 = 0.5974	x1 = 0.701	x1 = 0.8015	x1 = 0.8983
298.15 K	0.597 ± 0.011	0.653 ± 0.012	0.711 ± 0.012	0.767 ± 0.013	0.831 ± 0.014	0.906 ± 0.015	0.989 ± 0.017	1.066 ± 0.018	1.173 ± 0.019
303.15 K	0.561 ± 0.01	0.604 ± 0.011	0.668 ± 0.012	0.714 ± 0.012	0.77 ± 0.013	0.834 ± 0.014	0.911 ± 0.015	0.988 ± 0.017	1.07 ± 0.018
308.15 K	0.532 ± 0.01	0.57 ± 0.01	0.625 ± 0.011	0.671 ± 0.012	0.726 ± 0.013	0.782 ± 0.013	0.854 ± 0.015	0.918 ± 0.015	0.999 ± 0.017
313.15 K	0.499 ± 0.009	0.536 ± 0.01	0.586 ± 0.011	0.619 ± 0.011	0.664 ± 0.012	0.726 ± 0.013	0.78 ± 0.013	0.851 ± 0.015	0.914 ± 0.015

Cc1ccc(C(C)C)cc1 + COC(C)(C)C
298.15 K, 101.33 kPa
Conditions	viscosity [mPa·s]
x2 = 0.0616	0.7751 ± 0.0071
x2 = 0.1556	0.7225 ± 0.0067
x2 = 0.3301	0.6338 ± 0.006
x2 = 0.4987	0.5524 ± 0.0055
x2 = 0.5665	0.5253 ± 0.0054
x2 = 0.6911	0.4605 ± 0.0051
x2 = 0.7665	0.4272 ± 0.005
x2 = 0.8304	0.3998 ± 0.0049
x2 = 0.8734	0.3814 ± 0.0048
x2 = 0.9298	0.3583 ± 0.0047
x2 = 0.9644	0.3467 ± 0.0047

CC(=O)CC(C)=O + CC(C)CCO
298.15 K, 101 kPa
Conditions	viscosity [mPa·s]
x1 = 0.1	2.622 ± 0.023
x1 = 0.2	1.997 ± 0.02
x1 = 0.3	1.558 ± 0.018
x1 = 0.4	1.26 ± 0.017
x1 = 0.5	1.063 ± 0.016
x1 = 0.6	0.933 ± 0.016
x1 = 0.7	0.844 ± 0.015
x1 = 0.8	0.778 ± 0.015
x1 = 0.9	0.729 ± 0.015

CN(C)c1ccccc1 + O=[N+]([O-])c1ccccc1
298.15 K, 101 kPa
Conditions	viscosity [mPa·s]
x2 = 0.1239	1.337 ± 0.024
x2 = 0.2063	1.355 ± 0.026
x2 = 0.5628	1.488 ± 0.033
x2 = 0.6512	1.565 ± 0.036
x2 = 0.8325	1.702 ± 0.042
x2 = 0.9168	1.766 ± 0.045

C=CC#N + CC(=O)N(C)C
303.15 K, 101.3 kPa
Conditions	viscosity [mPa·s]
x1 = 0.0998	0.8246 ± 0.0053
x1 = 0.1982	0.7637 ± 0.005
x1 = 0.297	0.7048 ± 0.0047
x1 = 0.3941	0.6449 ± 0.0044
x1 = 0.5009	0.5797 ± 0.0041
x1 = 0.5995	0.5228 ± 0.0039
x1 = 0.6984	0.4682 ± 0.0037
x1 = 0.7976	0.4132 ± 0.0034
x1 = 0.9005	0.3591 ± 0.0032

CN(C)c1ccccc1 + CC(C)(C)O
303.15 K, 101 kPa
Conditions	viscosity [mPa·s]
x1 = 0.0534	3.315 ± 0.037
x1 = 0.1054	3.242 ± 0.035
x1 = 0.1689	3.141 ± 0.033
x1 = 0.2256	3.041 ± 0.03
x1 = 0.2958	2.907 ± 0.028
x1 = 0.3612	2.775 ± 0.025
x1 = 0.4502	2.587 ± 0.022
x1 = 0.5246	2.423 ± 0.02
x1 = 0.6589	2.112 ± 0.017
x1 = 0.7421	1.908 ± 0.015
x1 = 0.8046	1.747 ± 0.014
x1 = 0.8645	1.584 ± 0.013
x1 = 0.9472	1.34 ± 0.013

CN(C)c1ccccc1 + CCC(C)=O
viscosity [mPa·s], 101 kPa
Conditions	303.15 K	308.15 K
x1 = 0.0689	0.487 ± 0.021	0.438 ± 0.02
x1 = 0.1256	0.574 ± 0.024	0.516 ± 0.022
x1 = 0.1905	0.671 ± 0.026	0.605 ± 0.024
x1 = 0.2652	0.776 ± 0.03	0.701 ± 0.027
x1 = 0.3256	0.853 ± 0.032	0.773 ± 0.03
x1 = 0.3905	0.926 ± 0.035	0.84 ± 0.032
x1 = 0.4621	0.993 ± 0.037	0.905 ± 0.034
x1 = 0.5362	1.048 ± 0.039	0.958 ± 0.036
x1 = 0.6058	1.086 ± 0.04	0.997 ± 0.037
x1 = 0.6753	1.113 ± 0.041	1.025 ± 0.038
x1 = 0.7416	1.129 ± 0.041	1.045 ± 0.038
x1 = 0.8056	1.14 ± 0.042	1.06 ± 0.039
x1 = 0.8826	1.149 ± 0.042	1.076 ± 0.039

CCCCN(CCCC)CCCC + CCCCOCCO
viscosity [mPa·s], 100 kPa
Conditions	298.15 K	303.15 K	308.15 K
x2 = 0.05	1.31 ± 0.03	1.19 ± 0.03	1.12 ± 0.03
x2 = 0.1004	1.37 ± 0.03	1.23 ± 0.03	1.15 ± 0.03
x2 = 0.1502	1.43 ± 0.03	1.28 ± 0.03	1.19 ± 0.03
x2 = 0.2006	1.49 ± 0.03	1.33 ± 0.03	1.23 ± 0.03
x2 = 0.2999	1.62 ± 0.03	1.43 ± 0.03	1.32 ± 0.03
x2 = 0.3999	1.76 ± 0.03	1.54 ± 0.03	1.43 ± 0.03
x2 = 0.5046	1.93 ± 0.03	1.69 ± 0.03	1.55 ± 0.03
x2 = 0.6	2.1 ± 0.03	1.83 ± 0.03	1.67 ± 0.03
x2 = 0.7	2.29 ± 0.03	1.99 ± 0.03	1.8 ± 0.03
x2 = 0.8	2.5 ± 0.03	2.16 ± 0.03	1.96 ± 0.03
x2 = 0.8997	2.7 ± 0.03	2.36 ± 0.03	2.14 ± 0.03
x2 = 0.9498	2.79 ± 0.03	2.43 ± 0.03	2.21 ± 0.03

C=CC#N + CC#N
303.15 K, 101.3 kPa
Conditions	viscosity [mPa·s]
x1 = 0.0965	0.3219 ± 0.0031
x1 = 0.2002	0.3193 ± 0.0031
x1 = 0.2977	0.3185 ± 0.0031
x1 = 0.3966	0.3178 ± 0.0031
x1 = 0.4928	0.3169 ± 0.003
x1 = 0.5983	0.3154 ± 0.003
x1 = 0.6941	0.3147 ± 0.003
x1 = 0.7977	0.3136 ± 0.003
x1 = 0.8997	0.3124 ± 0.003

CCCCC(C)O (centres undefined) + CC(C)OC(C)C
viscosity [mPa·s], 100 kPa
Conditions	x2 = 0.0806	x2 = 0.1592	x2 = 0.2412	x2 = 0.3508	x2 = 0.4391	x2 = 0.5594	x2 = 0.6497	x2 = 0.7378	x2 = 0.8483	x2 = 0.9386
293.15 K	4.51 ± 0.23	3.97 ± 0.2	3.48 ± 0.18	2.91 ± 0.15	2.49 ± 0.13	1.97 ± 0.1	1.6 ± 0.08	1.26 ± 0.06	0.84 ± 0.04	0.531 ± 0.027
298.15 K	3.61 ± 0.18	3.16 ± 0.16	2.76 ± 0.14	2.3 ± 0.12	1.97 ± 0.1	1.56 ± 0.08	1.275 ± 0.065	1.02 ± 0.05	0.706 ± 0.036	0.465 ± 0.024
303.15 K	2.89 ± 0.15	2.53 ± 0.13	2.2 ± 0.11	1.83 ± 0.09	1.567 ± 0.079	1.25 ± 0.06	1.034 ± 0.052	0.84 ± 0.04	0.6 ± 0.03	0.42 ± 0.02
308.15 K	2.38 ± 0.12	2.08 ± 0.11	1.825 ± 0.092	1.53 ± 0.08	1.32 ± 0.07	1.06 ± 0.05	0.88 ± 0.04	0.715 ± 0.036	0.52 ± 0.03	0.38 ± 0.02
313.15 K	2 ± 0.1	1.75 ± 0.09	1.54 ± 0.08	1.29 ± 0.07	1.115 ± 0.056	0.906 ± 0.046	0.756 ± 0.038	0.62 ± 0.03	0.46 ± 0.02	0.35 ± 0.02
318.15 K	1.69 ± 0.09	1.49 ± 0.08	1.31 ± 0.07	1.11 ± 0.06	0.962 ± 0.049	0.783 ± 0.04	0.66 ± 0.03	0.55 ± 0.03	0.416 ± 0.021	0.32 ± 0.02
323.15 K	1.44 ± 0.07	1.27 ± 0.06	1.12 ± 0.06	0.95 ± 0.05	0.83 ± 0.04	0.68 ± 0.04	0.58 ± 0.03	0.49 ± 0.03	0.38 ± 0.02	0.295 ± 0.015

CC(C)(N)CO + CCO
313.15 K, 100 kPa
Conditions	viscosity [mPa·s]
x1 = 0.03	0.91 ± 0.06
x1 = 0.054	1.05 ± 0.06
x1 = 0.11	1.3 ± 0.08
x1 = 0.26	2.32 ± 0.14

CN(C)c1ccccc1 + CC(=O)O
viscosity [mPa·s], 101 kPa
Conditions	x2 = 0.1008	x2 = 0.201	x2 = 0.3424	x2 = 0.3973	x2 = 0.4957	x2 = 0.5978	x2 = 0.7002	x2 = 0.7928	x2 = 0.8476	x2 = 0.9025
298.15 K	1.363 ± 0.036	1.448 ± 0.038	1.644 ± 0.043	1.757 ± 0.046	2.04 ± 0.054	2.547 ± 0.067	3.352 ± 0.089	4.244 ± 0.11	4.514 ± 0.12	3.819 ± 0.1
318.15 K	0.9835 ± 0.026	1.02 ± 0.027	1.106 ± 0.029	1.16 ± 0.031	1.281 ± 0.034	1.488 ± 0.04	1.831 ± 0.049	2.192 ± 0.059	2.327 ± 0.063	2.085 ± 0.056
